No end group written: not given here.
Tests used:
[1] = tested on: Escherichia coli ATCC 25922; experiment: Antimicrobial assay I, modified protocol (tryptic soy broth), MBC; conditions: minimum bactericidal concentration, Table 4
[2] = tested on: fungal; experiment: Presently preferred antifungal peptides, selected from the MIC/MBC data; assay type: cell-based; conditions: X = preferred
Source text: The peptide's “length” is the number of amino acid residues in the sequence.

[3] = tested on: Pseudomonas aeruginosa ATCC 27853; experiment: Antimicrobial assay I, modified protocol (tryptic soy broth), MBC; conditions: minimum bactericidal concentration, Table 4
[4] = tested on: Stapholococcus aureus ATCC 25923; experiment: as above; conditions: minimum bactericidal concentration, Table 4
Method: The preparation of all media, stock solutions, and dilutions took place in a laminar flow hood to prevent contamination. Bacterial cells were freshly grown on antibiotic medium 2 agar slants (pH 7.0 at 25° C.). Bacteria were suspended and diluted in antibiotic medium 3 to about 10^4 cfu/ml and used as the inoculum. Sample solutions (100 μl/well) were added to plates according to the plate layout. Inoculum (100 μl/well) was added to achieve a final concentration of 5×10^3 cfu/ml. Negative controls received 100 μl saline and 100 μl growth medium. Positive controls received 100 μl saline and 100 μl inoculum. Bacterial plates were incubated at 37° C. for 24 hours.
However, the data for Table 4 were obtained with a modified protocol wherein the medium was tryptic soy broth, inocolum strength was approximately 10^4 CFU per ml, and values determined were minimum bactericidal concentrations (MBC) or minimum fungicidal concentrations (MFC).
MBC or MFC values are in μg/mL. E. coli is Escherichia coli ATCC accession number 25922; P. aerug is Pseudomonas aeruginosa ATCC accession number 27853, S. aur. is Stapholococcus aureus ATCC accession number 25923; Candida is Candida albicans ATCC accession number 10231.

[5] = tested on: Candida albicans ATCC 10231; experiment: Antimicrobial assay I, modified protocol (tryptic soy broth), MFC; conditions: minimum fungicidal concentration, Table 4

Row | Substance | MBC E. coli A.25922 [1] | Anti-fungal (preferred peptide) [2] | MBC P. aerug A.27853 [3] | MBC S. aur A.25923 [4] | MFC Candida A.10231 [5]
1 | FALKALKKAL-NH2 [compound 170] | 25 µg/mL | X (Preferred antifungal peptides can be selected as having MIC or MBC values of less than or equal to about 25 μg/ml) | >250 µg/mL | 150 µg/mL | 25 µg/mL
2 | FAKLLAKALKKL-NH2 [compound 103] | 30 µg/mL | X (Preferred antifungal peptides can be selected as having MIC or MBC values of less than or equal to about 25 μg/ml) | 30 µg/mL | >50 µg/mL | 25 µg/mL
3 | FALKALKKLKKALKKAL-NH2 [compound 153] | 10 µg/mL | X (Preferred antifungal peptides can be selected as having MIC or MBC values of less than or equal to about 25 μg/ml) | 25 µg/mL | 5 µg/mL | 25 µg/mL
4 | KYKKALKKLAKLL-NH2 [compound 146] | 10 µg/mL | X (Preferred antifungal peptides can be selected as having MIC or MBC values of less than or equal to about 25 μg/ml) | >250 µg/mL | 75 µg/mL | 10 µg/mL
5 | FAKLLALALKKAL-NH2 [compound 97] | 25 µg/mL | X (Preferred antifungal peptides can be selected as having MIC or MBC values of less than or equal to about 25 μg/ml) | >50 µg/mL | 25 µg/mL | 25 µg/mL
6 | FALALKALKKLKKALKKAL-NH2 [compound 27] | 10 µg/mL | X (Preferred antifungal peptides can be selected as having MIC or MBC values of less than or equal to about 25 μg/ml) | 8 µg/mL | 8 µg/mL | >50 µg/mL
7 | FKLAFKLAKKAFL-NH2 [compound 122] | 30 µg/mL | X (Preferred antifungal peptides can be selected as having MIC or MBC values of less than or equal to about 25 μg/ml) | 30 µg/mL | 25 µg/mL | 15 µg/mL
8 | FAKLLAKLAK-NH2 [compound 123] | 40 µg/mL | X (Preferred antifungal peptides can be selected as having MIC or MBC values of less than or equal to about 25 μg/ml) | INACT | INACT | 25 µg/mL
9 | FAKKLAKKLAKAL-NH2 [compound 74] | >55 µg/mL | X (Preferred antifungal peptides can be selected as having MIC or MBC values of less than or equal to about 25 μg/ml) | 50 µg/mL | >55 µg/mL | >55 µg/mL
10 | FAKLLAKALKKAL-NH2 [compound 102] | 25 µg/mL | X (Preferred antifungal peptides can be selected as having MIC or MBC values of less than or equal to about 25 μg/ml) | 30 µg/mL | 25 µg/mL | 15 µg/mL

Source: patent publication US20050209157A1, “Short bioactive peptides and methods for their use” (priority 2001, published 2005)
